Measured values: patent publication US4939175A, “Use of N,N-dimethyl-1-[1-(4-chlorophenyl)cyclobutyl]-3-methylbutylamine” (priority 1988, dated 1990)
Like-named read-outs stand apart in the source and are kept apart here.

Key:
[1] = Acute toxicity, oral, mice; parameters: species or system SlC:ddy male mice; settings: mouse, in vivo, read-out: Number of dead mice per 10 mice
Procedure: SlC:ddy male mice (10 heads/group) were used.
After the oral administration of the test smaple, desipramine was used as the test drug, to the mice, the number of the dead mice was counted at 0.5, 1, 2, 4, 18 and 24 hours respectively after the oral administration.

[2] = tested on: memory defect artificially induced by electroconvulsive shock in mice; test: Memory defect artificially induced by electroconvulsive shock in mice (step-through test); format: in vivo, C 57 BL/6 male mice; settings: ECS +; for Number of mice showing latency longer than 300 seconds: 1 hour before testing trial, 10 mice; for Amnestic syndrome rate: control ECS + 80, ECS - 40
Procedure: […]. The test was carried out by using a box divided into two rooms (light and dark). The dark room (23.5 cm in height, 12 cm in width and 24 cm in length) was surrounded by black inner walls and provided with a stainless steel bar on the floor to give the mouse an electric shock. The light room (triangular in shape with 15 cm in height, 13 cm in bottom side length and 12 cm in oblique-side length) was surrounded by transparent walls except for the partition wall, provided with a guillotine door (5 cm in height and 3 cm in width) at the center of the partition wall, and illuminated with a 100 Watt electric bulb at a position of 50 cm above the floor.
The test was carried out according to the procedures as follows:
After the mouse was put in the light room, the guillotine door was opened. When the limbs of the mouse entered into the dark room, the door was closed. After keeping the mouse for 10 seconds in the dark room, it was brought back to the home cage.
The mouse was put in the light room at the time of 30 minutes after the taming trial, and then the guillotine door was opened. When the limbs of the mouse entered into the dark room, the door was closed and 0.4 mA of electric shock was applied to the limbs of the mouse for 3 seconds. Then, the mouse was brought back to the home cage.
The mouse was put in the light room at the time of 24 hours after the acquisition trial, and then the guillotine door was opened.
Electroconvulsive shock (30 mA, 0.5 second) was applied to the mouse at its ears immediately after the acquisition trial, which caused tetany on the mouse. The mice, which survived after the righting reflex had disappeared,were subjected to the testing trial 24 hours later.
The test compound was dissolved in distilled water, and the solution was orally administered, in a dose shown in Table 1 to each group consisting of 10 heads at the time of one hour before the testing trial.
The testing trial (3) was conducted at one hour after the test compound administration, and the reaction latency was examined for each test mouse. The obtained results are shown in Table 1, and Amnestic syndrome rate (%) is expressed as follows: [formula]

[3] = tested on: depletion of dopamine induced by MPTP in mice whole brain; test: animal or person; format: in vivo, SlC: ddy strain male mice; settings: Mus musculus, po, 168 h, MPTP 50 mg/kg s.c., read-out: Percentage of the amount of dopamine in the treated group against the amount of dopamine in the non-treated group; for response vs control in vivo at 10 mg/kg: 10 mg/kg oral

CC(C)CC(N(C)C)C1(c2ccc(Cl)cc2)CCC1.Cl (centres unmarked) [Test compound, N,N-dimethyl-1-[1-(4-chlorophenyl)cyclobutyl]3-methylbutylamine hydrochloride]
mortality at 0.5 h ([1]; 200 mg/kg oral): 0% | mortality at 1 h ([1]; 200 mg/kg oral): 10% | mortality at 2 h ([1]; 200 mg/kg oral): 10% | mortality at 4 h ([1]; 200 mg/kg oral): 10% | mortality at 18 h ([1]; 200 mg/kg oral): 20% | mortality at 24 h ([1]; 200 mg/kg oral): 20% | mortality at 0.5 h ([1]; 800 mg/kg oral): 40% | mortality at 1 h ([1]; 800 mg/kg oral): 50% | mortality at 2 h ([1]; 800 mg/kg oral): 50% | mortality at 4 h ([1]; 800 mg/kg oral): 60% | mortality at 18 h ([1]; 800 mg/kg oral): 90% | mortality at 24 h ([1]; 800 mg/kg oral): 90% | Number of mice showing latency longer than 300 seconds ([2]; 0.3 mg/kg oral): 4 | Amnestic syndrome rate ([2]; 0.3 mg/kg oral): 60% | Number of mice showing latency longer than 300 seconds ([2]; 1.0 mg/kg oral): 3 | Amnestic syndrome rate ([2]; 1.0 mg/kg oral): 70% | Number of mice showing latency longer than 300 seconds ([2]; 3.0 mg/kg oral): 7 | Amnestic syndrome rate ([2]; 3.0 mg/kg oral): 30% | Number of mice showing latency longer than 300 seconds ([2]; 10.0 mg/kg oral): 9 | Amnestic syndrome rate ([2]; 10.0 mg/kg oral): 10% | response vs control in vivo at 10 mg/kg ([3]; Experiment I, control 71 ± 11, *P < 0.05, **P < 0.01): 83 ± 12% | response vs control in vivo at 30 mg/kg ([3]; Experiment I, 30 mg/kg oral, control 71 ± 11, *P < 0.05, **P < 0.01): 85 ± 6% | response vs control in vivo at 10 mg/kg ([3]; Experiment II, control 88 ± 20, *P < 0.05): 111 ± 8%
